The NIST ThermoML archive (doi:10.1021/je1004966)
± gives the expanded uncertainty stated by the source.

Conditions: Crystal; DTA

Compound Cl.Cn1ccnc1 [1-methylimidazolium chloride] has a Normal melting temperature of 86.0 ± 1 °C.
